Laboratory results as given in patent US20170333421A1, “Population Pharmacokinetics of Liposomal Irinotecan” (IPSEN BIOPHARM LTD., priority 2016, published 2017).
pIC50: −log10 of the molar value. Structures can show the parent of a compound that is named as a salt. Where two headings read alike, the source gives them in different places.

How the values were obtained:
clinical = conditions: human, in vivo, 300 mg/m2
[1] = NAPOLI-1 observed 5-FU concentration; conditions: human, in vivo, intravenous; read-out: 5-FU estimated half-life after the end of infusion
Colorectal Cancer = conditions: cited from earlier work
pancreatic cell lines = assay: CellTiter-Glo cell viability, pancreatic cell panel; type: cell-based
Description: (§1) In vitro efficacy study was done using CellTiter-Glo® Luminescent Cell Viability Assay (Promega) with Corning Cat #3707 384well White Clear bottom plates. Cells were plated (1000 cells/well) in 384 well format and allowed to incubate @ 37 C for 24 hours. Monotherapy drugs were added at the 24 hr time point and then allowed to incubate @ 37 C for 24 hours. At the 48 hr time point the drugs in media were removed, washed with PBS, and fresh media was added. Cells were then allowed to incubate @ 37 C for 72 hours. At the 120 hr time point media was removed and CellTiter-Glo (CTG) reagent was added (1:1 ratio with PBS). Plate was read by luminometer (Envision Multilabel reader). More details of this assay can be found in Accelrys Notebook ELN as EXP-15-AC2111.
(§2) All cell lines had been adapted to and were maintained in RPMI with 10% fetal bovine serum and supplemented with penicillin/streptomycin (Invitrogen).
(§3) Data was analyzed using an in-house algorithm developed using Matlab (Mathworks, Natick MA). In summary, average CTG mean luminescent values were computed for 4 replicate wells. Outlier detection was performed by computing the coefficient of variation (CV>20%) and outliers were removed from the average. CTG values were normalized based on a control non-treated well. Drug concentration in microMolar (uM) was log transformed prior to fitting to a 4 parameter logistic curve.
(§4) Data quality control was performed to ensure that the concentration range is optimal according to these rules: (1) if the lowest concentration kills more than 70% of the cells the concentration range is deemed too potent (2) if the highest concentration kills less than 30% of the cells, the concentration range is deemed low or the cell line is too resistant. Additionally, goodness of the fit was evaluated using R^2 and R^2<0.9 is flagged as a bad fit. Statistical analysis was performed using JMP (SAS Institute Inc., NC).
(§5) Pancreatic cell lines were cultured to sub confluent state in 384 well plates prior to incubation with varying doses of SN-38 for 24 hours. Additions 72 hours of culture were performed prior to CTG assessment. Every well was run in 4 replicates, and the entire experiment was run in four different plates. The compared results from the four separate experiments show the reproducibility of the cytotoxic effects of SN-38.

Aspc1 = assay: CellTiter-Glo cell viability; type: cell-based; conditions: for IC50: Homo sapiens, Aspc1, 24 h exposure + 72 h recovery
Description: as §1, §2, §3, §4, §5

BxPC3 = assay: CellTiter-Glo cell viability; type: cell-based; conditions: for IC50: Homo sapiens, BXPC-3, BxPC3, 24 h exposure + 72 h recovery
Description: as §1, §2, §3, §4, §5

CFPAC1 = assay: CellTiter-Glo cell viability; type: cell-based; conditions: for IC50: CFPAC1, 24 h exposure + 72 h recovery
Description: as §1, §2, §3, §4, §5

Capan-2 = assay: CellTiter-Glo cell viability; type: cell-based
Description: as §1, §2, §3, §4, §5

Colo357 = assay: CellTiter-Glo cell viability; type: cell-based; conditions: for IC50: Homo sapiens, Colo357, 24 h exposure + 72 h recovery
Description: as §1, §2, §3, §4, §5

HPAFII = assay: CellTiter-Glo cell viability; type: cell-based; conditions: for IC50: Homo sapiens, HPAF-II, 24 h exposure + 72 h recovery
Description: as §1, §2, §3, §4, §5

Hs766t = assay: CellTiter-Glo cell viability; type: cell-based; conditions: for IC50: 24 h exposure + 72 h recovery
Description: as §1, §2, §3, §4, §5

KP4 = assay: CellTiter-Glo cell viability; type: cell-based; conditions: for IC50: Homo sapiens, KP-4, KP4, 24 h exposure + 72 h recovery
Description: as §1, §2, §3, §4, §5

L3.3 = assay: CellTiter-Glo cell viability; type: cell-based; conditions: for IC50: L3.3, 24 h exposure + 72 h recovery
Description: as §1, §2, §3, §4, §5

L3.6pL = assay: CellTiter-Glo cell viability; type: cell-based; conditions: for IC50: Homo sapiens, 24 h exposure + 72 h recovery
Description: as §1, §2, §3, §4, §5

Miapaca2 = assay: CellTiter-Glo cell viability; type: cell-based; conditions: for IC50: Miapaca2, 24 h exposure + 72 h recovery
Description: as §1, §2, §3, §4, §5

PL45 = assay: CellTiter-Glo cell viability; type: cell-based; conditions: for IC50: PL45, 24 h exposure + 72 h recovery
Description: as §1, §2, §3, §4, §5

Panc1 = assay: CellTiter-Glo cell viability; type: cell-based
Description: as §1, §2, §3, §4, §5

Panc6.03 = assay: CellTiter-Glo cell viability; type: cell-based; conditions: for IC50: Panc6.03, 24 h exposure + 72 h recovery
Description: as §1, §2, §3, §4, §5

SU8686 = assay: CellTiter-Glo cell viability; type: cell-based; conditions: for IC50: Homo sapiens, SU.86.86, SU8686, 24 h exposure + 72 h recovery
Description: as §1, §2, §3, §4, §5

SW1990 = assay: CellTiter-Glo cell viability; type: cell-based; conditions: for IC50: Homo sapiens, SW1990, 24 h exposure + 72 h recovery
Description: as §1, §2, §3, §4, §5

[2] = Kohne 2013, continuous infusion
[3] = n 3, read-out: IC50 Log(μM) mean (converted)
[4] = n 2, read-out: IC50 Log(μM) mean (converted)
[5] = n 4, read-out: IC50 Log(μM) mean (converted)

SMILES: CCc1c2c(nc3ccc(OC(=O)N4CCC(N5CCCCC5)CC4)cc13)-c1cc3c(c(=O)n1C2)COC(=O)[C@]3(O)CC [irinotecan HCl, (S)-4,11-diethyl-3,4,12,14-tetrahydro-4-hydroxy-3,14-dioxo1H-pyrano[3′,4′:6,7] indolizino[1,2-b]quinolin-9-yl-[1,4′bipiperidine]-1′-carboxylate]
- AUC(0-inf) (clinical): 24700 ng·h/mL
- Cmax (clinical): 4100 ng/mL

SMILES: O=c1[nH]cc(F)c(=O)[nH]1 [5-FU, 5-fluorouracil]
- half-life [1]: 8 to 14 min
- Median OS (m) (Colorectal Cancer; Kohne 2013, bolus 463-531 mg/m^2/week): nrd
- OS 3 y (Colorectal Cancer; Kohne 2013, bolus): 85%
- OS 5 y (Colorectal Cancer; Kohne 2013, bolus): 79%
- Median OS (m) (Colorectal Cancer; Kohne 2013, continuous infusion 800-3500 mg/m^2/week, N 797): nrd
- OS 3 y (Colorectal Cancer; [2]): 85%
- OS 5 y (Colorectal Cancer; [2]): 79%
- Overall Survival HR, bolus vs continuous infusion (ref) (Colorectal Cancer; Kohne 2013 PETACC-2, BL 370-425 mg/m^2/d for 5 d q4w, N 804): 0.96
- OS HR across different 5-FU dose intensities and dose administrations (Colorectal Cancer; meta-analysis, did not affect OS): 0.96-1.11

SMILES: CCc1c2c(nc3ccc(O)cc13)-c1cc3c(c(=O)n1C2)COC(=O)[C@]3(O)CC [SN-38]
- Tumor cell kill rates averaged across all cell lines (pancreatic cell lines): 90%
- decrease in cell viability for most cell lines (pancreatic cell lines; 24 h SN-38, additional 72 h culture): around 90%
- pIC50 (pancreatic cell lines; 24 hours exposure, recovery period of 72 h, read-out: IC50 range across all pancreatic cell lines): 7.00 to 12.00
- IC50 (pancreatic cell lines; basis of the uSN38 threshold, read-out: median IC50 in in-vitro pancreatic cell lines): 0.03 ng/mL
- Tumor Cell Kill (%) mean (Aspc1; Aspc1): 91.61%
- IC50 (Aspc1; [3]): 0.00398 µM
- IC50 (Aspc1; read-out: IC50(nM) mean): 0.00398 µM
- Tumor Cell Kill (%) mean (BxPC3; BxPC3): 77.37%
- IC50 (BxPC3; [4]): 17 pM
- IC50 (BxPC3; read-out: IC50(nM) mean): 17 pM
- Tumor Cell Kill (%) mean (CFPAC1; CFPAC1): 84.74%
- IC50 (CFPAC1; Homo sapiens, CFPAC-1, n 2, read-out: IC50 Log(μM) mean (converted)): 3.16 pM
- IC50 (CFPAC1; Homo sapiens, CFPAC-1, read-out: IC50(nM) mean): 3.2 pM
- pIC50 (CFPAC1; Homo sapiens, CFPAC-1, CFPAC1, read-out: IC50 concentration): 11.49
- Tumor Cell Kill (%) mean (Capan-2; Capan-2): 94.61%
- IC50 (Capan-2; Capan-2, 24 h exposure + 72 h recovery, read-out: IC50(nM) mean): 20.4 nM
- IC50 (Capan-2; Homo sapiens, Capan-2, Capan-2, 24 h exposure + 72 h recovery, n 3, read-out: IC50 Log(μM) mean (converted)): 20.4 nM
- IC50 (Capan-2; Homo sapiens, Capan-2, Capan-2, 24 h exposure + 72 h recovery, read-out: IC50(nM) mean): 20.4 nM
- Tumor Cell Kill (%) mean (Colo357; Colo357): 94.47%
- IC50 (Colo357; [4]): 61.7 pM
- IC50 (Colo357; read-out: IC50(nM) mean): 61.7 pM
- Tumor Cell Kill (%) mean (HPAFII): 93.24%
- IC50 (HPAFII; [3]): 0.00204 µM
- IC50 (HPAFII; read-out: IC50(nM) mean): 0.00204 µM
- Tumor Cell Kill (%) mean (Hs766t): 86.41%
- IC50 (Hs766t; read-out: IC50(nM) mean): 63.1 nM
- IC50 (Hs766t; Hs766T, n 2, read-out: IC50 Log(μM) mean (converted)): 63.1 nM
- IC50 (Hs766t; Hs766T, read-out: IC50(nM) mean): 63.1 nM
- IC50 (KP4; [4]): 7.94 pM
- IC50 (KP4; read-out: IC50(nM) mean): 7.9 pM
- Tumor Cell Kill (%) mean (KP4; KP4): 86.62%
- Tumor Cell Kill (%) mean (L3.3; L3.3): 93.01%
- IC50 (L3.3; [4]): 2.04 pM
- IC50 (L3.3; read-out: IC50(nM) mean): 2 pM
- Tumor Cell Kill (%) mean (L3.6pL): 95.18%
- IC50 (L3.6pL; [4]): 2.82 pM
- IC50 (L3.6pL; read-out: IC50(nM) mean): 2.8 pM
- pIC50 (Miapaca2; Homo sapiens, MIA PaCa-2, MiaPaCa2, read-out: IC50 concentration): 11.38
- IC50 (Miapaca2; Homo sapiens, MIA PaCa-2, n 3, read-out: IC50 Log(μM) mean (converted)): 4.17 pM
- IC50 (Miapaca2; Homo sapiens, MIA PaCa-2, read-out: IC50(nM) mean): 4.2 pM
- Tumor Cell Kill (%) mean (Miapaca2; Miapaca2): 91.23%
- Tumor Cell Kill (%) mean (PL45; PL45): 92.16%
- IC50 (PL45; [4]): 3.55 pM
- IC50 (PL45; read-out: IC50(nM) mean): 3.5 pM
- IC50 (Panc1; Homo sapiens, PANC-1, Panc1, 24 h exposure + 72 h recovery, n 4, read-out: IC50 Log(μM) mean (converted)): 0.0138 µM
- IC50 (Panc1; Homo sapiens, PANC-1, Panc1, 24 h exposure + 72 h recovery, read-out: IC50(nM) mean): 0.0138 µM
- Tumor Cell Kill (%) mean (Panc1; Panc1): 89.54%
- IC50 (Panc1; Panc1, 24 h exposure + 72 h recovery, read-out: IC50(nM) mean): 0.0138 µM
- Tumor Cell Kill (%) mean (Panc6.03; Panc6.03): 87.68%
- IC50 (Panc6.03; [5]): 0.00115 µM
- IC50 (Panc6.03; read-out: IC50(nM) mean): 0.00115 µM
- IC50 (SU8686; [4]): 0.000692 µM
- IC50 (SU8686; read-out: IC50(nM) mean): 0.000692 µM
- Tumor Cell Kill (%) mean (SU8686; SU8686): 95.82%
- IC50 (SW1990; [5]): 87.1 pM
- IC50 (SW1990; read-out: IC50(nM) mean): 87.1 pM
- Tumor Cell Kill (%) mean (SW1990; SW1990): 91.92%
